Converted amounts (≈) assume the structure as drawn. Values belong to the molecule of their own block, whether it stands above or below them.
Experiments:
[1] = target: Ubiquitin carboxyl-terminal hydrolase 9X (Homo sapiens, UniProt Q93008); experiment: Inhibition of USP9x (unknown origin)
[2] = Aqueous solubility of compound; format: physicochemical
HCT-116 [3] = experiment: Anticancer activity against human HCT-116 cells assessed as cell growth inhibition incubated for 72 hrs by CellTiter Glo assay; format: functional, cell-based; settings: HCT-116, 72 h
[4] = target: T1, Ubiquitin carboxyl-terminal hydrolase 8 (Homo sapiens, UniProt P40818); experiment: Inhibition of human USP8 using Di-Ub IQF as substrate incubated for 15 mins by K63-2 assay
T1 sequence (P40818 whole entry): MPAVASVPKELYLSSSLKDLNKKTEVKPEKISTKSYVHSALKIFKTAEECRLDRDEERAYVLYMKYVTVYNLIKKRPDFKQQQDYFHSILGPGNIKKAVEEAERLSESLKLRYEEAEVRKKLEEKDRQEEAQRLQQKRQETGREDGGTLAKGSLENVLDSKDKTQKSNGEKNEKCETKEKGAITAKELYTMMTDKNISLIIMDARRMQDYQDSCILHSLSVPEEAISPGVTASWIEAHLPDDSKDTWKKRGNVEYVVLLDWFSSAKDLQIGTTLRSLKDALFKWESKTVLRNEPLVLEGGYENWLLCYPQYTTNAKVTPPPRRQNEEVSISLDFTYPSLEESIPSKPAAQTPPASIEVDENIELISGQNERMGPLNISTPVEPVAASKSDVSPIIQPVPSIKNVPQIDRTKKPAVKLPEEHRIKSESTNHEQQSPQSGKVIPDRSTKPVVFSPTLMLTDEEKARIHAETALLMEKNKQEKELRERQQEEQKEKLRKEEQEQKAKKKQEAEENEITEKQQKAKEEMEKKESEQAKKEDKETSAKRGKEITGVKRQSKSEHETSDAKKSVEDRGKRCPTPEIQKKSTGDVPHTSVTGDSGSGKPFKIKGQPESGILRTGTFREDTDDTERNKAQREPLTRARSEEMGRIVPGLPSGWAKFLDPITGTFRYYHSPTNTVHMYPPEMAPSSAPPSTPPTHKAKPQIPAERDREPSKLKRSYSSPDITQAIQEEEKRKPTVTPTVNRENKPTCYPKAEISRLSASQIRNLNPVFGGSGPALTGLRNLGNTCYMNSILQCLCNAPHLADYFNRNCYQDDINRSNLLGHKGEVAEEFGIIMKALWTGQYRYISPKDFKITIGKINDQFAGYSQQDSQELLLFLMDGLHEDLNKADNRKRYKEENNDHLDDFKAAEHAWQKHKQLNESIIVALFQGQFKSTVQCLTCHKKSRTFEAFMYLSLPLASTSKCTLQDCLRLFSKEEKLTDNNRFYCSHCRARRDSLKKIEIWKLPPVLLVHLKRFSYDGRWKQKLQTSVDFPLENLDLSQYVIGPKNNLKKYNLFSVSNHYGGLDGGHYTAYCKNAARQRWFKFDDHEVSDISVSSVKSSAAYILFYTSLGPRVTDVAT

[5] = target: T2, Ubiquitin carboxyl-terminal hydrolase 2 (Homo sapiens, UniProt O75604); experiment: Inhibition of human USP2 using Di-Ub IQF as substrate incubated for 15 mins by K63-2 assay
T2 sequence (O75604 whole entry): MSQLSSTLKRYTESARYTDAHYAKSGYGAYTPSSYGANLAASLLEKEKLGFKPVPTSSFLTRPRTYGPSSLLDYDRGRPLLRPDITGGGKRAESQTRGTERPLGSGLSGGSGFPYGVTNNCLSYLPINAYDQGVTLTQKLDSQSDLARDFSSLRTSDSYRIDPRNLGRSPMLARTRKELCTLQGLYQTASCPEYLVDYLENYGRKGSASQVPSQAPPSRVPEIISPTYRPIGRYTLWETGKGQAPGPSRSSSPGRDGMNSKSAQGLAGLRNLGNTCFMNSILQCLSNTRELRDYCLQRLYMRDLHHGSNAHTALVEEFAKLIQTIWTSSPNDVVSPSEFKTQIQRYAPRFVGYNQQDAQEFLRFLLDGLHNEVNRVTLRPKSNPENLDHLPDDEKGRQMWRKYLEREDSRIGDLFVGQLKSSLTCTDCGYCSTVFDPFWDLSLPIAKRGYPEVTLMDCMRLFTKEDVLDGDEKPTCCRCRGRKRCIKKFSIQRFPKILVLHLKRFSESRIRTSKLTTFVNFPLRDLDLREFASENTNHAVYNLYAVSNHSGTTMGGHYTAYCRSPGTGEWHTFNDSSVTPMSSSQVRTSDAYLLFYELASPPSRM

[6] = target: T3, Ubiquitin carboxyl-terminal hydrolase 14 (Homo sapiens, UniProt P54578); experiment: Inhibition of human his tagged USP14 by SPR analysis
T3 sequence (P54578 whole entry): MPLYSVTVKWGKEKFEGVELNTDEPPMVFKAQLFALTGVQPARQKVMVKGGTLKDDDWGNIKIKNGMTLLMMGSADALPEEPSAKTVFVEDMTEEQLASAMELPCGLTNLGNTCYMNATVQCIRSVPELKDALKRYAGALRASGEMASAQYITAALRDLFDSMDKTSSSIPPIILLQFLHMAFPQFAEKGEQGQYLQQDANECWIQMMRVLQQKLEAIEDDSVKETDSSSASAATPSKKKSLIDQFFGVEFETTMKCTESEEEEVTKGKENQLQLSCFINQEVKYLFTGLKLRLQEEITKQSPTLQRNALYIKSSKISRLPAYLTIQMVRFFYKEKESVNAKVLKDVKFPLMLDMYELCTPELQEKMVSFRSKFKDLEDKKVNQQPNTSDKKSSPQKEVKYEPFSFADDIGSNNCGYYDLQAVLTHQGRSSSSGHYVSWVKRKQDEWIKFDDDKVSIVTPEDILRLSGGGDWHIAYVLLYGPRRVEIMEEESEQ

[7] = target: T3, Ubiquitin carboxyl-terminal hydrolase 14; experiment: Inhibition of human his tagged USP14 assessed as dissociation constant by SPR analysis
[8] = target: T4, Ubiquitin carboxyl-terminal hydrolase isozyme L5 (Homo sapiens, UniProt Q9Y5K5); experiment: Inhibition of human his tagged UCHL5 assessed as dissociation constant by SPR analysis
T4 sequence (Q9Y5K5 whole entry): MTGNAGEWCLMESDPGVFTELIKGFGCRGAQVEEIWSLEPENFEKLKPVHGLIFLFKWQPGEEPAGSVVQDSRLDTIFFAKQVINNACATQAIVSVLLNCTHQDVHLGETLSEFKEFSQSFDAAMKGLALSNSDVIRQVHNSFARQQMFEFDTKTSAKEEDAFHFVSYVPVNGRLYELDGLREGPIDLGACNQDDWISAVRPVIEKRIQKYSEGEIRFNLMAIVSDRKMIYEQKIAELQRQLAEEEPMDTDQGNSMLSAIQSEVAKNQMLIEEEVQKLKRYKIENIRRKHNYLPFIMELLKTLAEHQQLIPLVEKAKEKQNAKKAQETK

[9] = target: T5, Ubiquitin carboxyl-terminal hydrolase 7 (Homo sapiens, UniProt Q93009); experiment: Inhibition of human USP7 using Ub-Rho110 as substrate by fluorescence based SPR analysis
Target sequence in this assay (Q93009 whole entry): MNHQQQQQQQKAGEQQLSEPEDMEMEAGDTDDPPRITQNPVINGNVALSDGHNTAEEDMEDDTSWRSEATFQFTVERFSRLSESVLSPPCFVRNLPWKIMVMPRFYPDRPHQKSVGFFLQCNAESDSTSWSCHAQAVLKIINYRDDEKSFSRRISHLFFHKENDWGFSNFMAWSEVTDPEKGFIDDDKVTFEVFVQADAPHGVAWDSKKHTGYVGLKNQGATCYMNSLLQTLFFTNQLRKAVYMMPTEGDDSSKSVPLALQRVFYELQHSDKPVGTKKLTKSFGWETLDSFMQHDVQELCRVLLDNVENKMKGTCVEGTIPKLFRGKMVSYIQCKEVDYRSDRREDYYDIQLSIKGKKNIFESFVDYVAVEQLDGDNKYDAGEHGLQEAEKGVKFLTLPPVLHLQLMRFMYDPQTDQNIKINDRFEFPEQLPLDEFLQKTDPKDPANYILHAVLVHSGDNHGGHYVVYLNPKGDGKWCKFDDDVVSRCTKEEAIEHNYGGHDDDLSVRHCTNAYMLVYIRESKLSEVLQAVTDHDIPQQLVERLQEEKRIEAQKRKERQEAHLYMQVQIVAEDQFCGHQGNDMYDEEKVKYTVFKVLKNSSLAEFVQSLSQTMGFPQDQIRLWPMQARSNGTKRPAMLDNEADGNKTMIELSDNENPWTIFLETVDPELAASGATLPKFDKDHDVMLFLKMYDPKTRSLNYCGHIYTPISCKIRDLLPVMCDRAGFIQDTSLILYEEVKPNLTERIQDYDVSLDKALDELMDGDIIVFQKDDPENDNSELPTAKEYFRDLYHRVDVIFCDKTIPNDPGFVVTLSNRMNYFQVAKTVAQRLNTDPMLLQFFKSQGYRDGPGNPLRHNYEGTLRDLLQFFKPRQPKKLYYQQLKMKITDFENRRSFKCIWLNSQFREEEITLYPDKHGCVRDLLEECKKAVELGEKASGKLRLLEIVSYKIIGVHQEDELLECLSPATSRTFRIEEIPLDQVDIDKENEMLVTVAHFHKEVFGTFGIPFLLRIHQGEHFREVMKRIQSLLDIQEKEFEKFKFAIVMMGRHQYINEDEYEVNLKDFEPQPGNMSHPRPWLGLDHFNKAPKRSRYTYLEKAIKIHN

[10] = target: T6, Ubiquitin carboxyl-terminal hydrolase 5 (Homo sapiens, UniProt P45974); experiment: Inhibition of human USP5 using Ub-PA as substrate assessed as deubiquitination level incubated for 1 hr by SDS-PAGE assay
T6 sequence (P45974 whole entry): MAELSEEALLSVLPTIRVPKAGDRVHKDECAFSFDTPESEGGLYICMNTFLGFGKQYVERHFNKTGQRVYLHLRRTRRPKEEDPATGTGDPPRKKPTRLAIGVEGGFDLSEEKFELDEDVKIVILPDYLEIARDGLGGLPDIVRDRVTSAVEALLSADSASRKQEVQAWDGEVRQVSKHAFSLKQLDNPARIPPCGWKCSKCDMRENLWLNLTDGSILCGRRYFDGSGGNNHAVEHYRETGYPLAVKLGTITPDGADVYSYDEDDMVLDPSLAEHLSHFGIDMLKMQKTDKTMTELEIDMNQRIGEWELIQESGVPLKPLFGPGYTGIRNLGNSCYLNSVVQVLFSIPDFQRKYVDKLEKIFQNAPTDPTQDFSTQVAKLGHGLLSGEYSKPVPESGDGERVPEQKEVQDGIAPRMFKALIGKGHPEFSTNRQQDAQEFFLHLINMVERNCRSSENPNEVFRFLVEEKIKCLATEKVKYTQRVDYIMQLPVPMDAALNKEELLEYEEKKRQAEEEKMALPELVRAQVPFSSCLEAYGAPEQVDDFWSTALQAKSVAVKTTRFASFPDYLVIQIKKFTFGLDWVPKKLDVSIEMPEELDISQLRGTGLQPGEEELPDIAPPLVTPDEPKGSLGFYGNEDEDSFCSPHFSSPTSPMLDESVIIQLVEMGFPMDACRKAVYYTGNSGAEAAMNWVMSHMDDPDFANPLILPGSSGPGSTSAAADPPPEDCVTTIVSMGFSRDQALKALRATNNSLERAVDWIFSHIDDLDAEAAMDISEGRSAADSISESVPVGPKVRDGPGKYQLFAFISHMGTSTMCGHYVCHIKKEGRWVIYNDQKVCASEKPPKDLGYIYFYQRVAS

[11] = target: T3, Ubiquitin carboxyl-terminal hydrolase 14; experiment: Inhibition of human USP14 using Ub-PA as substrate assessed as deubiquitination level incubated for 1 hr by SDS-PAGE assay
HCT-116 [12] = experiment: Anticancer activity against human HCT-116 cells assessed as cell growth inhibition; format: functional, cell-based
[13] = target: Ubiquitin carboxyl-terminal hydrolase 20 (Homo sapiens, UniProt Q9Y2K6); experiment: Inhibition of human his tagged USP20 by Westernblot analysis
[14] = target: T6, Ubiquitin carboxyl-terminal hydrolase 5; experiment: Inhibition of human his tagged USP5 by Westernblot analysis
[15] = target: T7, Ubiquitin carboxyl-terminal hydrolase isozyme L1 (Homo sapiens, UniProt P09936); experiment: Inhibition of human his tagged UCH-L1 by Westernblot analysis
T7 sequence (P09936 whole entry): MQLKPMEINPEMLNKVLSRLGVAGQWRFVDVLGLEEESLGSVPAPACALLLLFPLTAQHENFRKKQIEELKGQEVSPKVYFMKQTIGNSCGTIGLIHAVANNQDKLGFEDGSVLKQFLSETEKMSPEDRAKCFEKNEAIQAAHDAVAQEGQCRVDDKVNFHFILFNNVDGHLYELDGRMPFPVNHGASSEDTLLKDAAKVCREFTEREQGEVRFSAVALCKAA

[16] = target: T8, Ubiquitin carboxyl-terminal hydrolase isozyme L3 (Homo sapiens, UniProt P15374); experiment: Inhibition of human his tagged UCH-L3 by Westernblot analysis
T8 sequence (P15374 whole entry): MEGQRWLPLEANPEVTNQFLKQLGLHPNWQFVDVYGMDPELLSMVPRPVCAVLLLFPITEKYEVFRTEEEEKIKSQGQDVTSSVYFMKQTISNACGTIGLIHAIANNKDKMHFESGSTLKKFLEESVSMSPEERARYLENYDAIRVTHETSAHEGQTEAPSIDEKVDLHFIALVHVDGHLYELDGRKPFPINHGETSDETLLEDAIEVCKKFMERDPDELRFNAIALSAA

[17] = target: T1, Ubiquitin carboxyl-terminal hydrolase 8; experiment: Inhibition of human his tagged USP8 by Westernblot analysis
[18] = target: T2, Ubiquitin carboxyl-terminal hydrolase 2; experiment: Inhibition of human his tagged USP2 by Westernblot analysis
[19] = target: T5, Ubiquitin carboxyl-terminal hydrolase 7; experiment: Inhibition of human his tagged USP7 (208 to 560 residues) catalytic domain expressed in insect sf9 cells using monoubiquitinated ubiquitin-rhodamine as substrate incubated for 1 hrs by fluorescence based assay
Target sequence in this assay (Q93009 whole entry): as the sequence (Q93009 whole entry) above

MM1.S = experiment: Anticancer activity against human MM1.S cells assessed as cell growth inhibition incubated for 120 hrs by CellTiter-Glo assay; format: functional, cell-based
[20] = target: T5, Ubiquitin carboxyl-terminal hydrolase 7; experiment: Inhibition of human his tagged USP7 (208 to 560 residues) expressed in insect sf9 cells using monoubiquitinated ubiquitin-rhodamine as substrate assessed as dissociation constant incubated for 1 hrs by fluorescence based assay
Target sequence in this assay (Q93009 whole entry): as the sequence (Q93009 whole entry) above

[21] = target: T5, Ubiquitin carboxyl-terminal hydrolase 7; experiment: Inhibition of human his tagged USP7 (208 to 560 residues) expressed in insect sf9 cells using monoubiquitinated ubiquitin-rhodamine as substrate assessed as ratio of Kinact/Ki incubated for 1 hrs by fluorescence based assay
Target sequence in this assay (Q93009 whole entry, looked up): as the sequence (Q93009 whole entry) above

[22] = target: T5, Ubiquitin carboxyl-terminal hydrolase 7; experiment: Inhibition of human USP7 by SPR analysis
Target sequence in this assay (Q93009 whole entry): as the sequence (Q93009 whole entry) above

[23] = target: Ubiquitin carboxyl-terminal hydrolase 24 (Homo sapiens, UniProt Q9UPU5); experiment: Inhibition of USP24 (unknown origin)

Ubiquitin carboxyl-terminal hydrolase 9X, sequence (Q93008 whole entry): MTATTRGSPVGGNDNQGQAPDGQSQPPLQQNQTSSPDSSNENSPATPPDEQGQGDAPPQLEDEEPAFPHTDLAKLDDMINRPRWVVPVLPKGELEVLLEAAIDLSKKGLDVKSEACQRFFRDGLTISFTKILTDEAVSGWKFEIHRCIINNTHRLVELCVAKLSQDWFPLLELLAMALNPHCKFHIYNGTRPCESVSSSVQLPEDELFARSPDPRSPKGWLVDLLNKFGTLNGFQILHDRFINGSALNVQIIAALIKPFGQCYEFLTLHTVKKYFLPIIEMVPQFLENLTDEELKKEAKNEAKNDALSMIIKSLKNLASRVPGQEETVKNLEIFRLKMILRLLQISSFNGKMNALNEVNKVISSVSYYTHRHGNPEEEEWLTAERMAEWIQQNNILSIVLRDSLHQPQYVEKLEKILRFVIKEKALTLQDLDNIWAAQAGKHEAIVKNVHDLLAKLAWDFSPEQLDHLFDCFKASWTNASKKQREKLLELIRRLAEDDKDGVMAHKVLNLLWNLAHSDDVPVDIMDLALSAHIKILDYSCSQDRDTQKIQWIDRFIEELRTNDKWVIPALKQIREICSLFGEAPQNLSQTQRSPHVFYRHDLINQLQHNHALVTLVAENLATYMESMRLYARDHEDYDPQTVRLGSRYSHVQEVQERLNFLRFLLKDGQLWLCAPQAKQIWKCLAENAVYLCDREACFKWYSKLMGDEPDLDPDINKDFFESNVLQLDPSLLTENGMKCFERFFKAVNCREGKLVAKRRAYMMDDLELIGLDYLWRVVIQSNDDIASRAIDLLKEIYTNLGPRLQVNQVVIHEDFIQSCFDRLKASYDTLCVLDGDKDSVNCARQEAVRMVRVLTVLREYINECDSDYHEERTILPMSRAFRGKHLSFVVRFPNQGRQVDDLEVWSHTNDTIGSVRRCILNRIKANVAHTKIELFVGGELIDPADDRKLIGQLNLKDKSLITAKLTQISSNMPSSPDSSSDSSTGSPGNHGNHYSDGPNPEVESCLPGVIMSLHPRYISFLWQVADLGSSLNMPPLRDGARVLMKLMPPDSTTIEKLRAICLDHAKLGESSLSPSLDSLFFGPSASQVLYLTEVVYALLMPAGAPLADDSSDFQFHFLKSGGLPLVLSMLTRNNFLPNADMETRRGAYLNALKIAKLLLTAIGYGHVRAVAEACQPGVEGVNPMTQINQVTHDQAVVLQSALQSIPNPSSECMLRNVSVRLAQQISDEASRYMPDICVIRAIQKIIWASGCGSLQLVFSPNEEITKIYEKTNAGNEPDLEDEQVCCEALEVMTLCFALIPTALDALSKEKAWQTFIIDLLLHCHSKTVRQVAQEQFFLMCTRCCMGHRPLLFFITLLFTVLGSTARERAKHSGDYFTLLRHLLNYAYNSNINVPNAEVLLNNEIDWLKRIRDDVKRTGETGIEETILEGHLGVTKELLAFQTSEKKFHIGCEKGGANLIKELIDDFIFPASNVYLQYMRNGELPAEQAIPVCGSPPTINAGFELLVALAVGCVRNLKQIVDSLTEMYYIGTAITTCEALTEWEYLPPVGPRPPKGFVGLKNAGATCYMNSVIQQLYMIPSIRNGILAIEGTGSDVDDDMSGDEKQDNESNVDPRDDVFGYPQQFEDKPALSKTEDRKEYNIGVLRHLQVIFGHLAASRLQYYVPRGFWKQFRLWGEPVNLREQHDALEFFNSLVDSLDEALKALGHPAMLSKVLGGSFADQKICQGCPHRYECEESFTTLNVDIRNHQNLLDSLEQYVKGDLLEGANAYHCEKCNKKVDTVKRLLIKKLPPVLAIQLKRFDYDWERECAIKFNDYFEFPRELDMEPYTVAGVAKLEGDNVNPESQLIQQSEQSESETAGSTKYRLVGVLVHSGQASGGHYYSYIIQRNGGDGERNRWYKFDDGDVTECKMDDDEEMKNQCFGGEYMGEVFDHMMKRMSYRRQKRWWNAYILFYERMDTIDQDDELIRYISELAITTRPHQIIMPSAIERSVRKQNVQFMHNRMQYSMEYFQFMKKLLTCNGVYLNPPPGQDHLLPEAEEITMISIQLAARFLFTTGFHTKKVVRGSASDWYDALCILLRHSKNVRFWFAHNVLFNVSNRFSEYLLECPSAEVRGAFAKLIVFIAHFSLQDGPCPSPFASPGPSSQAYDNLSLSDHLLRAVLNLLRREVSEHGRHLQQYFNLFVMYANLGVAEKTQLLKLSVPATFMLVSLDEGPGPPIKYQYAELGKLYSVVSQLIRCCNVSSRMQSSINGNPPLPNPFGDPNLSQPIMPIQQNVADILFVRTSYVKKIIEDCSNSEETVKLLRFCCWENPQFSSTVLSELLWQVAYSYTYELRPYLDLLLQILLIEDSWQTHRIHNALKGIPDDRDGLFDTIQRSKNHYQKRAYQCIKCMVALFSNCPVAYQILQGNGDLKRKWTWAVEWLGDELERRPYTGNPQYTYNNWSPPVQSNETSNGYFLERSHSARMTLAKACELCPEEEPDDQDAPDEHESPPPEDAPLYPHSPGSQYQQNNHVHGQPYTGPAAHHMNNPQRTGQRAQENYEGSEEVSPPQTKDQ

IC50 [9]: 1.5 nM
Compound: NCc1ccc(-c2[nH]nc3c(=O)n(CC4(O)CCN(C(=O)C[C@H](c5ccccc5)C(F)(F)F)CC4)cnc23)cc1

IC50 [10]: 29.1 µM
IC50 [11]: 680 nM
Compound: Cc1cc(C(=O)CN2CCCCC2)c(C)n1-c1ccc(F)cc1

IC50 [19]: 69 nM
IC50 (MM1.S): 33 nM
Compound: O=C(C[C@@H](C(F)F)n1ccc(F)n1)N1CCC(O)(Cn2cnc3c(cnn3-c3ccc(F)cc3)c2=O)CC1

Kd [20]: 7.8 µM
Ratio [21]: 66 M⁻¹ s⁻¹
IC50 [22]: 65 nM
Compound: C=CS(=O)(=O)Nc1ccccc1-c1ccc(C(=O)N2CCC(O)(Cn3cnc4c(cnn4-c4ccc(F)cc4)c3=O)CC2)cc1

IC50 [23]: 2500 nM
Compound: CCCC(NC(=O)/C(C#N)=C/c1nc(Cl)ccc1Cl)c1ccc(OCCN2CCOCC2)cc1 (centres undefined)

More lines, now with the values behind:

Compound: CCC[C@H](NC(=O)/C(C#N)=C/c1cccc(Br)n1)c1ccccc1
IC50 [1]: 2500 nM
solubility [2]: 2.3 µM (≈ 0.884 µg/mL)

Compound: Cc1ccc(S(=O)(=O)Nc2cc(C(F)(F)F)ccc2C(=O)Nc2nc(-c3ccccc3)cs2)cc1
EC50 (HCT-116 [3]): 3.6 µM
IC50 [4]: 950 nM
IC50 [5]: 1100 nM

Compound: C=CC(=O)N1CC/C(=C\c2ccc(F)c([N+](=O)[O-])c2)C(=O)/C(=C/c2ccc(F)c([N+](=O)[O-])c2)C1
IC5 [6]: 10 µM
Kd [7]: 14 µM
Kd [8]: 1500 nM

Compound: CN(CCCNC(=O)c1ccc2nc3c(c(Cl)c2c1)CCCC3)Cc1ccccc1
IC50 (HCT-116 [12]): 2000 nM

Compound: O=C(NCCc1ccc(Cl)cc1)c1ccc2nc3c(c(Cl)c2c1)CCCC3
IC50 [13]: > 200 µM
IC50 [14]: > 200 µM
IC50 [15]: > 200 µM
IC50 [16]: > 200 µM
IC50 [17]: > 200 µM
IC50 [18]: > 200 µM
